Patent US20210301038A1, “POLYSIALIC ACID AND DERIVATIVES THEREOF, PHARMACEUTICAL COMPOSITION AND METHOD OF PRODUCING POLYSIALIC ACID” (Medizinische Hochschule Hannover (MHH), priority 2018, published 2021)

Columns and labels:
[1] = system: C57BL/6J mice with intra-mPFC endoNF injection; test: Novel object recognition test before and after intra-mPFC endoNF injection; type: in vivo, mouse; details: 30 min before encoding; sarcosine 600 mg/kg i.p. (d2); DP12 (d5) and DP1 (d6) 1 mg/kg intranasally
Procedure: Guide cannulas were fabricated using stainless steel tubing with outer/inner diameter Ø 0.711/0.483 mm (Science Products, Germany). Dummy cannulas were made from entomological pins, size 2, Ø 0.41 mm (FST, Germany). Chronic implantation of cannulas into the mPFC in mice was performed as described previously for intrahippocampal injections (Kochlamazashvili et al., 2012; Senkov et al., 2015; Senkov et al., 2006).
Acute injection of endoNF in vivo was done under a short isoflurane anesthesia. For intra-mPFC injection, we used a digitally controlled infusion system (UltraMicroPump, UMP3, and Micro4 Controller, WPI, USA) fed with a 10 μl-Hamilton syringe and NanoFil 135 μm (35 GA) beveled needle. The thin (135 μm) part of the needle went into the mouse brain during injection, whereas its thick part (430 μm) fit perfectly in the guide cannula (inside 483 μm). Injections were performed as follows: 1) a mouse was anesthetized with 1-3% isoflurane as during implantation; 2) it was put into the stereotaxic frame; 3) the dummy cannula was gently removed from the left guide cannula; 4) a NanoFil injecting needle was carefully placed inside of the guide cannula and advanced further down until reaching the marker (made with a permanent pen at the needle shank (430 μm) to visualize the point when the needle should reach the surface of the brain coming out of the guide cannula (equal to the length of guide cannula); 5) once the marker was reached, a slow (10 μm increment) step dial was used to deepen the needle into the brain; 6) endoNF (2 μg/μl) or vehicle was injected with the following settings: 250 nl per site as deep as 1.5 and 2.25 mm from the brain surface (total injection volume per hemisphere 500 nl, injection rate of 3 nl/s); 7) after injection was complete (˜5 min), the needle was left in the injection site for another 5 min and then gently removed; 8) the dummy cannula was then put back to its place; 9) the same procedure was performed for the right hemisphere. The whole injection process took approximately 20-25 min under isoflurane anesthesia, and the mice recovered rather quickly, starting to move in approximately 2-3 min after being returned to their home cages. Complete recovery of a mouse after such short anesthesia usually occurs within 3-5 min. After injection, mice were returned to their animal facility. Behavior experiments started on the day after injection at approximately the same time, so that we could perform cognitive tests 24 hours after injection.
A white open field arena (50×50×30 cm) was used in the novel object recognition task. All behavior was video recorded and analyzed automatically by software (ANY-maze, version 4.99, Stoelting Co., Wood Dale, Ill.). […]

5×FAD mice = test: Recency test (increased difficulty) in 5×FAD mice; type: in vivo, mouse; details: intranasal, 0.5 mg/kg DP12 or equimolar
Procedure: The recency test comprised of two encoding phases followed by a retrieval phase (modified from Nelson et al., 2011). The interval between the encoding phases was 1 h, and the interval between the second encoding phase and the retrieval phase was 10 min, except for experiments in 5×FAD mice when both intervals were 90 min to make the task more difficult. In the first encoding phase, animals were placed into the open field arena and allowed to explore a pair of identical objects for 10 min. Then, a different pair of identical objects was presented in the second encoding phase (10 min total exploration time). During the retrieval phase, two different objects, one object from each encoding phase, were placed into the apparatus and animals were given 10 min to explore them.
Animals were randomly assigned to treatment groups using a randomized block design to counterbalance differences in age. The time of the day when tests were performed for different animals was also counterbalanced between treatment groups using a randomized block design. All measurements and statistical analyses were performed performed blindly, i.e. the tubes containing drugs/vehicle were coded. Exploration was defined as the animal approaching the object at a distance of less than 2 cm. The animal climbing onto the object with both hind- and forelimbs was not considered as exploration. In the same trial, objects were counterbalanced, and between trials, the placements of novel and familiar objects were changed. The objects used in the novel object recognition test were not employed in the recency test. Novelty detection was evaluated by calculating the discrimination ratio as follows: [novel object time−familiar object time]/[novel object time+familiar object time]×100%. In the recency test, the discrimination ratio was calculated as follows: [least recent object time−most recent object time]/[least object time+most recent object time]×100%. Unreliable measurements (about 10%), when animals spent in total ≤10 s near to both objects, were excluded from analysis.
As the recency test was consistently used for analysis of DP12 effects in other mouse models, it was further investigated whether 13- to 14-month-old 5×FAD mice are impaired in this form of memory. In this series of experiments, the intervals between each session during recency test were increased to 90 min to increase the difficulty to recall the temporal order of the two objects shown in the arena (FIG. 12(A)). […] To verify whether DP12 or avDP10-9OAc may improve cognitive function in the 5×FAD model of AD, these compounds or a vehicle (H2O) were intranasally delivered in the same cohort of 5×FAD mice before multiple recency test sessions (separated by 4 day-interval). The numbers of mice in each treatment group during one session were counterbalanced and each mouse received in a random order both drugs and the vehicle. […] In contrast, vehicle-treated 5×FAD mice explored the two objects equally (FIG. 12(C)).

[2] = 2 hours before test, 90 min intervals

(α(2→8)Neu5Ac)12 [DP12]
novel object recognition after intra-mPFC endoNF injection [1]: significantly improved novel object recognition | exploration of least recent versus most recent object in the retrieval phase (5×FAD mice; [2]): clear preference for the least recently explored object | object discrimination (discrimination ratio) compared to vehicle (5×FAD mice; [2]): significant difference in object discrimination | number of mice showing discrimination more than 20% (5×FAD mice; n=11 5×FAD mice): 10 of 11
